The values that follow come from ChEMBL document CHEMBL1201862, “PubChem BioAssay data set” (2004).

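Assay format: 96-well plates, 48-hour exposure. GI50 marks 50% less growth.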 Active and inactive are the calls of the source. Cut-off read from the data, not from the text of the source: active = GI50 up to about 1.1 µM and inactive = higher. A value given as a limit tells only on which side of the number the result lay.

Test systems include HOP-62; SNB-19; NCI-H522; SK-OV-3; OVCAR-3; OVCAR-5; DLD-1; CCRF-CEM; NCI-H226; UACC-62; RPMI-8226; MOLT-4; MCF7; A498; U-251; Malme-3M; SK-MEL-28; KM12.
What all share (test): growth of human tumour cells (NCI), 48 h

For the molecule `[N-]=[N+]=CC(=O)OCC(N)C(=O)O` (stereo unspecified), the GI50 with HOP-62 was 0.582 µM (active); with SNB-19, 2.88 µM (inactive); with NCI-H522, 0.54 µM (active); with SK-OV-3, 2.42 µM (inactive); with OVCAR-3, 0.841 µM (active); with OVCAR-5 it was 14.6 µM (inactive). Besides, the GI50 in the experiment on DLD-1 was 0.344 µM (active); with CCRF-CEM, 0.222 µM (active); with NCI-H226, 625 µM (inactive); with UACC-62, 1.19 µM (inactive); in the experiment with RPMI-8226, 0.528 µM (active); in the experiment on MOLT-4, 0.216 µM (active). Further, the GI50 with MCF7 is 0.217 µM (active); in the experiment with A498, 0.764 µM (active); in the experiment with U-251, 0.502 µM (active); in the experiment on Malme-3M, 54.8 µM (inactive); with SK-MEL-28 it was 3.35 µM (inactive); with KM12, 0.406 µM (active).

Consider `CCOC(=O)c1ccc(N[C@@H]2c3cc4c(cc3C(c3cc(OC)c(O)c(OC)c3)[C@H]3C(=O)OCC32)OCO4)cc1O` (stereo partly specified), for which the GI50 was 0.306 µM (active) in the experiment on HOP-62; 0.652 µM (active) with SNB-19; 0.665 µM (active) in the experiment with NCI-H522; 0.738 µM (active) with SK-OV-3; 2.43 µM (inactive) in the experiment with OVCAR-3; 1.06 µM (active) in the experiment with OVCAR-5. Besides, the GI50 is 1.44 µM (inactive) in the experiment on DLD-1; 0.211 µM (active) in the experiment on CCRF-CEM; 0.256 µM (active) in the experiment on NCI-H226; 0.469 µM (active) with UACC-62; 0.94 µM (active) with RPMI-8226; 0.0207 µM (active) in the experiment with MOLT-4. For the same molecule, the GI50 in the experiment on MCF7 was 0.723 µM (active); in the experiment with A498 it was 0.607 µM (active); in the experiment on U-251, 0.92 µM (active); in the experiment with Malme-3M, 0.757 µM (active); in the experiment with SK-MEL-28 it was 1.22 µM (inactive); in the experiment on KM12, 0.579 µM (active).

For `CC(=O)OCC1OC(n2cc(F)c(=O)[nH]c2=O)C(NC(=O)OCc2ccccc2)C(OC(C)=O)C1OC(C)=O` (stereo unspecified), the GI50 in the experiment on HOP-62 is > 100 µM (inactive); with SNB-19, > 100 µM (inactive); in the experiment with NCI-H522 it was > 95.3 µM (inactive); with SK-OV-3, > 100 µM (inactive); in the experiment with OVCAR-3 it was > 100 µM (inactive); in the experiment with OVCAR-5 it was > 100 µM (inactive). In addition, the GI50 in the experiment with DLD-1, in the experiment on CCRF-CEM, with NCI-H226, in the experiment with UACC-62, in the experiment on RPMI-8226 and in the experiment with MOLT-4 was > 100 µM (inactive) throughout. Also, the GI50 in the experiment with MCF7, in the experiment with A498, with U-251, in the experiment on Malme-3M, in the experiment on SK-MEL-28 and in the experiment with KM12 was > 100 µM (inactive) each time.

`Nc1ncnc2c1ncn2[C@@H]1O[C@H](COP(=O)(O)O)[C@@H](O)[C@@H]1O`: the GI50 in the experiment on HOP-62 is > 50 µM (inactive); in the experiment on SNB-19, > 50 µM (inactive); with NCI-H522, > 50 µM (inactive); in the experiment with SK-OV-3 it was > 50 µM (inactive); with OVCAR-3 it was > 50 µM (inactive); in the experiment on OVCAR-5 it was > 40.7 µM (inactive). The GI50 in the experiment with DLD-1 is > 31.6 µM (inactive); in the experiment on CCRF-CEM, > 50 µM (inactive); in the experiment with NCI-H226 it was > 50 µM (inactive); in the experiment on UACC-62 it was > 50 µM (inactive); with RPMI-8226 it was > 50 µM (inactive); in the experiment with MOLT-4 it was > 38.8 µM (inactive). Also, the GI50 in the experiment with MCF7, in the experiment on A498, in the experiment with U-251, with Malme-3M, in the experiment on SK-MEL-28 and in the experiment with KM12 was > 50 µM (inactive) in each case.

`Nc1ccc2[nH]c3c(-c4ccccc4)nccc3c2c1`: the GI50 in the experiment on HOP-62 is > 84.5 µM (inactive); in the experiment on SNB-19 it was > 100 µM (inactive); with NCI-H522, 59.2 µM (inactive); with SK-OV-3 it was 54.2 µM (inactive); in the experiment with OVCAR-3, 56.9 µM (inactive); in the experiment with OVCAR-5, > 88.3 µM (inactive). The GI50 was 64.7 µM (inactive) in the experiment with DLD-1; 14.1 µM (inactive) in the experiment on CCRF-CEM; 27.8 µM (inactive) in the experiment with NCI-H226; 29.2 µM (inactive) in the experiment on UACC-62; 20.3 µM (inactive) with RPMI-8226; 4.46 µM (inactive) in the experiment with MOLT-4. For the same molecule, the GI50 in the experiment with MCF7 is > 45.1 µM (inactive); in the experiment with A498, 36.5 µM (inactive); in the experiment on U-251, 75 µM (inactive); in the experiment with Malme-3M it was 76.4 µM (inactive); in the experiment with SK-MEL-28, > 100 µM (inactive); with KM12, 53.7 µM (inactive).

Turning to `Cc1c2ccnc(-c3ccccc3)c2cc2c1[nH]c1ccccc12`, the GI50 was 2.6 µM (inactive) in the experiment on HOP-62; 3.66 µM (inactive) with SNB-19; 4.52 µM (inactive) with NCI-H522; 2.9 µM (inactive) with SK-OV-3; 3.4 µM (inactive) with OVCAR-3; 3.77 µM (inactive) in the experiment with OVCAR-5. Moreover, the GI50 in the experiment on DLD-1 was 2.99 µM (inactive); in the experiment on CCRF-CEM, 3.26 µM (inactive); with NCI-H226 it was 2.64 µM (inactive); in the experiment on UACC-62 it was 1.09 µM (active); in the experiment with RPMI-8226 it was 2.77 µM (inactive); with MOLT-4 it was 2.75 µM (inactive). The GI50 with MCF7 is 2.13 µM (inactive); with A498, 0.219 µM (active); in the experiment on U-251, 0.873 µM (active); in the experiment on Malme-3M, 3.37 µM (inactive); with SK-MEL-28 it was 4.29 µM (inactive); with KM12 it was 1.45 µM (inactive).

Take `O=NN(CCCl)C(=O)NC1CCSc2ccccc21` (stereo unspecified): the GI50 was 0.776 µM (active) in the experiment with HOP-62; > 90.2 µM (inactive) in the experiment with SNB-19; > 100 µM (inactive) in the experiment with NCI-H522; > 100 µM (inactive) with SK-OV-3; > 100 µM (inactive) in the experiment with OVCAR-3; > 100 µM (inactive) with OVCAR-5. For the same molecule, the GI50 was > 100 µM (inactive) in the experiment with DLD-1; 10.3 µM (inactive) in the experiment with CCRF-CEM; > 100 µM (inactive) in the experiment on NCI-H226; 25 µM (inactive) with UACC-62; > 61.4 µM (inactive) in the experiment with RPMI-8226; 35.1 µM (inactive) in the experiment with MOLT-4. For the same molecule, the GI50 in the experiment on MCF7 was > 100 µM (inactive); in the experiment with A498, > 100 µM (inactive); with U-251 it was 58.2 µM (inactive); in the experiment with Malme-3M, > 100 µM (inactive); in the experiment on SK-MEL-28, > 58.2 µM (inactive); in the experiment on KM12, > 100 µM (inactive).
